# Patent publication US20240246918A1, “COMPOUNDS AND COMPOSITIONS AS EIF4E INHIBITORS AND THE USES THEREOF” (Ribometrix, Inc., priority 2022, published 2024)
# Like-named read-outs stand apart in the source and are kept apart here.
# Key:
# [1] = molecular target: T1, human eIF4E protein (Homo sapiens, UniProt P06730); assay: Biochemical competitive binding assay (TR-FRET competition, EDA-m7GDP-ATTO-647N probe); details: read-out: hEIF4E TR-FRET IC50
# T1 construct: purchased Novus NBP-45314
# Procedure, shortened: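 IC50 values come from 4-parameter fits of the normalized 665/620 nm TR-FRET ratio. Compound was first incubated 15 min with 4 nM recombinant His-eIF4E bound to 2.5 nM Eu-anti-His antibody, then 15 min with 5 nM m7GDP-ATTO-647N tracer, in pH 7.5 HEPES buffer with 100 mM KCl, Tween-20 and BSA.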
# [2] = test system: cyclin D1 protein levels in COLO 205 cells; assay: Cyclin D1 cellular inhibition assay (HTRF, 6 hours); assay type: cell-based; details: 6 hours of compound treatment, Cyclin D1 protein levels by HTRF, read-out: COLO 205 6 h Cyclin D1 TR-FRET IC50
# Protocol: The effect of compound treatment on cyclin D1 protein levels in COLO 205 cells was assessed, as follows. Test compound plates were prepared with a Tecan D300e Digital Dispenser as 11-point concentration-response curves with a final DMSO concentration of 1%. COLO 205 (ATCC, CCL-222) colorectal tumor cells were seeded to assay-ready plates in RPMI-1640 medium supplemented with 10% FBS at 20,000 cells in a volume of 6 microliters per well. After 6 hours of compound treatment, cells were lysed and Cyclin D1 protein levels were assessed by an HTRF assay (PerkinElmer #64CYCD1ITPEG), according to the manufacturer's protocol. Time-resolved fluorescence was measured using a Clariostar Plus microplate reader (BMG Labtech) or equivalent. After normalization to the average of DMSO control and maximum inhibition control wells, concentration-response data were plotted and standard 4-parameter curve fitting (GraphPad Prism v9.4.1) was utilized to determine IC50 values.
# [3] = test system: COLO 205 colorectal tumor cells; assay: Tumor cell viability inhibition assay (CellTiter-Glo 2.0, 72 hours); assay type: cell-based; details: COLO 205 cell viability
# Procedure, shortened: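 IC50 derived by 4-parameter fitting after normalizing luminescence to DMSO and max-inhibition wells. Compounds tested as 11 concentrations in 4-fold steps on COLO 205 cells seeded at 1500 per well in RPMI-1640/10% FBS; ATP content measured with CellTiter-Glo 2.0 after 72 h.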
# T1 sequence (P06730 whole entry): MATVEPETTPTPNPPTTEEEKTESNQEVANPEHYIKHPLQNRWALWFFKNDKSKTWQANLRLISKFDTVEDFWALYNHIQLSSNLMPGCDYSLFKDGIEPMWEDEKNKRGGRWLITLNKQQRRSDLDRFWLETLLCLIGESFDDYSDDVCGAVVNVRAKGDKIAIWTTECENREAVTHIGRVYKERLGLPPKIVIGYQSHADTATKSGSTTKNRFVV
Compound,IC50 [1] [nM],"IC50 ([2]; Homo sapiens, COLO 205, 6 h) [µM]","IC50 ([3]; Homo sapiens, COLO 205, 72 h) [µM]",IC50 [2] [µM],IC50 [3] [µM]
"Cc1cc(-c2cc(Cl)ccc2OCCn2c(C)nc3c(c2=O)C[C@H](N(C)C[C@H]2C[C@H](C(F)(F)F)C2)CC3)c2scc(C(=O)O)c2n1 (single isomer, unassigned) [Compound 213]",< 100,< 5,< 5,,
"Cc1cc(-c2cc(Cl)ccc2OCCn2c(C)nc3c(c2=O)C[C@H](N(C)[C@H]2CC[C@@](C)(O)CC2)CC3)c2scc(C(=O)NS(C)(=O)=O)c2n1 (single isomer, unassigned) [Compound 214]",< 100,> 20,> 20,,
"Cc1cc(-c2cc(Cl)ccc2OCCn2c(C)nc3c(c2=O)C[C@@H](N(C)[C@H]2CC[C@@](C)(O)CC2)CC3)c2scc(C(=O)NS(C)(=O)=O)c2n1 (single isomer, unassigned) [Compound 215]",< 100,> 20,> 20,,
"COc1cc(CN(C)C2CCc3nc(C)n(CCOc4ccc(Cl)cc4-c4cc(C)nc5c(C(=O)NS(C)(=O)=O)csc45)c(=O)c3C2)ccn1 (single isomer, unassigned) [Compound 216]",< 100,< 5,< 5,,
"COc1cc(CN(C)C2CCc3nc(C)n(CCOc4ccc(Cl)cc4-c4cc(C)nc5c(C(=O)O)csc45)c(=O)c3C2)ccn1 (single isomer, unassigned) [Compound 217]",< 100,< 5,< 5,,
"COc1cc(CN(C)C2CCc3nc(C)n(CCOc4ccc(Cl)cc4-c4cc(C)nc5c(C(=O)O)csc45)c(=O)c3C2)ccn1 (single isomer, unassigned) [Compound 218]",< 100,,,< 5,5 to 20
"Cc1cc(-c2cc(Cl)ccc2OCCn2c(C)nc3c(c2=O)C[C@@H](N(C)C[C@H]2C[C@H](C(F)(F)F)C2)CC3)c2scc(C(=O)O)c2n1 (single isomer, unassigned) [Compound 221]",< 100,< 5,< 5,,
"Cc1cc(-c2cc(Cl)ccc2OCCn2c(C)nc3c(c2=O)C[C@H](N(C)[C@H]2CC[C@@](C)(O)CC2)CC3)c2scc(C(=O)O)c2n1 (single isomer, unassigned) [Compound 224]",< 100,> 20,> 20,,
"Cc1cc(-c2cc(Cl)ccc2OCCn2c(C)nc3c(c2=O)C[C@H](N(C)[C@H]2CC[C@](C)(O)CC2)CC3)c2scc(C(=O)O)c2n1 (single isomer, unassigned) [Compound 227]",< 100,> 20,> 20,,
"Cc1cc(-c2ccc(Cl)cc2OCCn2c(C)nc3c(c2=O)C[C@H](N(C)[C@H]2C[C@@](C)(O)C2)CC3)c2scc(C(=O)O)c2n1 (single isomer, unassigned) [Compound 229]",< 100,> 20,> 20,,
"Cc1cc(-c2cc(Cl)ccc2OCCn2c(C)nc3c(c2=O)CC(N(C)C2(C4CCC4)CC2)CC3)c2scc(C(=O)NS(C)(=O)=O)c2n1 (single isomer, unassigned) [Compound 231]",< 100,5 to 20,5 to 20,,
"Cc1cc(-c2cc(Cl)ccc2OCCn2c(C)nc3c(c2=O)CC(N(C)C2(C4CCC4)CC2)CC3)c2scc(C(=O)NS(C)(=O)=O)c2n1 (single isomer, unassigned) [Compound 232]",< 100,,,< 5,< 5
"Cc1cc(-c2cc(Cl)ccc2OCCn2c(C)nc3c(c2=O)CC(N(C)Cc2ccc(=O)[nH]c2)CC3)c2scc(C(=O)O)c2n1 (single isomer, unassigned) [Compound 235]",< 100,> 20,> 20,,
"COC1CCN(C2CCc3nc(C)n(CCOc4ccc(Cl)cc4-c4cc(C)nc5c(C(=O)NS(C)(=O)=O)csc45)c(=O)c3C2)CC1 (single isomer, unassigned) [Compound 239]",< 100,< 5,< 5,,
"COC1CCN(C2CCc3nc(C)n(CCOc4ccc(Cl)cc4-c4cc(C)nc5c(C(=O)NS(C)(=O)=O)csc45)c(=O)c3C2)CC1 (single isomer, unassigned) [Compound 240]",< 100,,,5 to 20,< 5
"Cc1cc(-c2cc(Cl)ccc2OCCn2c(C)nc3c(c2=O)CC(N(C)CC2CC(F)(F)C2)CC3)c2scc(C(=O)O)c2n1 (single isomer, unassigned) [Compound 258]",< 100,< 5,< 5,,
Cc1cc(-c2cc(Cl)ccc2OCCn2c(C)nc3c(c2=O)C[C@@H](N(C)C[C@H]2C[C@@H](C(F)(F)F)C2)CC3)c2scc(C(=O)O)c2n1 (stereo in doubt) [Compound 189],< 100,< 5,< 5,,

Compound,IC50 [1] [nM],"IC50 ([2]; Homo sapiens, COLO 205, 6 h) [µM]","IC50 ([3]; Homo sapiens, COLO 205, 72 h) [µM]",IC50 [2] [µM],IC50 [3] [µM]
Cc1cc(-c2cc(Cl)ccc2OCCn2c(C)nc3c(c2=O)C[C@H](N(C)C[C@H]2C[C@@H](C(F)(F)F)C2)CC3)c2scc(C(=O)O)c2n1 (stereo in doubt) [Compound 223],< 100,< 5,< 5,,
Cc1cc(-c2cc(Cl)ccc2OCCn2c(C)nc3c(c2=O)CC(N(C)CC2CC(F)(F)C2)CC3)c2scc(C(N)=O)c2n1 (stereo not drawn) [Compound 138],100 to 500,> 20,5 to 20,,
COC1CCN(C2CCc3nc(C)n(CCOc4ccc(Cl)cc4-c4cc(C)nc5c(C(=O)NCC(F)F)csc45)c(=O)c3C2)CC1 (stereo not drawn) [Compound 142],100 to 500,> 20,5 to 20,,
COC1CCN(C2CCc3nc(C)n(CCOc4ccc(Cl)cc4-c4cc(C)nc5c(C(=O)NC6CC(F)(F)C6)csc45)c(=O)c3C2)CC1 (stereo not drawn) [Compound 144],500 to 5000,> 20,5 to 20,,
Cc1cc(-c2cc(Cl)ccc2OCCn2c(C)nc3c(c2=O)CC(N(C)CC2CC(F)(F)C2)CC3)c2scc(C(=O)NC3CC(F)(F)C3)c2n1 (stereo not drawn) [Compound 145],500 to 5000,> 20,5 to 20,,
Cc1cc(-c2cc(Cl)ccc2OCCn2c(C)nc3c(c2=O)CC(N(C)CC2CC(F)(F)C2)CC3)c2scc(C(=O)NCC(F)F)c2n1 (stereo not drawn) [Compound 150],500 to 5000,> 20,5 to 20,,
COC1CCN(C2Cc3c(cc(C)n(CCOc4ccc(Cl)cc4-c4cc(C)nc5c(C(=O)O)csc45)c3=O)C3(CC3)C2)CC1 (stereo not drawn) [Compound 151],< 100,< 5,< 5,,
COC1[C@@H]2CC[C@H]1CN(C1CCc3nc(C)n(CCOc4ccc(Cl)cc4-c4cc(C)nc5c(C(=O)O)csc45)c(=O)c3C1)C2 (stereo partly drawn) [Compound 152],< 100,< 5,< 5,,
Cc1cc(-c2cc(Cl)ccc2OCCn2c(C)nc3c(c2=O)CC(NCC2CC(F)(F)C2)CC3)c2scc(C(=O)O)c2n1 (stereo not drawn) [Compound 153],< 100,5 to 20,5 to 20,,
COc1cc(CNC2CCc3nc(C)n(CCOc4ccc(Cl)cc4-c4cc(C)nc5c(C(=O)O)csc45)c(=O)c3C2)ccn1 (stereo not drawn) [Compound 154],< 100,< 5,< 5,,
Cc1cc(-c2cc(Cl)ccc2OCCn2c(C)nc3c(c2=O)CC(N2CCC(C4CC(F)(F)C4)CC2)CC3)c2scc(C(=O)O)c2n1 (stereo not drawn) [Compound 156],< 100,< 5,< 5,,
Cc1cc(-c2cc(Cl)ccc2OCCn2c(C)nc3c(c2=O)CC(N2CCc4ncncc4C2)CC3)c2scc(C(=O)O)c2n1 (stereo not drawn) [Compound 157],< 100,5 to 20,5 to 20,,
"Cc1cc(-c2cc(Cl)ccc2OCCn2c(C)nc3c(c2=O)CC(N(C)Cc2ccnc(N)n2)CC3)c2scc(C(=O)O)c2n1 (stereo not drawn) [Compound 158, 7-(2-(2-(6-(((2-aminopyrimidin-4-yl)methyl)(methyl)amino)-2-methyl-4-oxo-5,6,7,8-tetrahydroquinazolin-3(4H)-yl)ethoxy)-5-chlorophenyl)-5-methylthieno[3,2-b]pyridine-3-carboxylic acid]",< 100,> 20,> 20,,
Cc1cc(-c2cc(Cl)ccc2OCCn2c(C)nc3c(c2=O)CC(N2CCc4[nH]ncc4C2)CC3)c2scc(C(=O)O)c2n1 (stereo not drawn) [Compound 159],< 100,> 20,> 20,,
Cc1cc(-c2cc(Cl)ccc2OCCn2c(C)nc3c(c2=O)CC(N2CCc4cc(C(F)(F)F)ccc4C2)CC3)c2scc(C(=O)O)c2n1 (stereo not drawn) [Compound 160],< 100,< 5,< 5,,
Cc1cc(-c2cc(Cl)ccc2OCCn2c(C)nc3c(c2=O)CC(N2CC4(CCC(F)(F)CC4)C2)CC3)c2scc(C(=O)O)c2n1 (stereo not drawn) [Compound 161],< 100,< 5,< 5,,
